In test [1] the target is T1, cathepsin X (Homo sapiens, UniProt Q9UBR2). Put plainly: Determination of relative inhibition of cathepsin X. The format is biochemical. Also on record: made in house; host or cells: Pichia pastoris. The protocol: (§1) Recombinant or native human cathepsins were used: recombinant cathepsin X and cathepsin S were expressed in Pichia pastoris, recombinant cathepsins B and L in E. coli, [43], native cathepsin H was isolated from human liver. Assay buffers for determining activities of cathepsins X and L consisted of 100 mM sodium acetate buffer, pH 5.5, for cathepsins H, S and B (endopeptidase activity) of 100 mM phosphate buffer pH 6.8, 6.5 and 6.0, respectively and for cathepsin B (exopeptidase activity) of 60 mM acetate buffer pH 5.0. Each assay buffer contained 0.01% Triton X-100 to prevent false positive inhibition due to aggregation of compounds[45], 5 mM cysteine, 1.5 mM EDTA and 0.1% PEG 8000. Enzymes were activated at 37 °C for 5 min before the assays.
Abz-FEK(Dnp)-OH was used as cathepsin X specific substrate in activity assays. 90 μL of activated cathepsin X (20 nM) was added to a black 96-well plate with 5 μL of substrate (3.25 μM final concentration) and 5 μL of the compound (50 μM final concentration). The reaction was monitored continuously at 420 nm ± 10 nm with excitation at 320 nm ± 20 nm and at 37 °C. Relative inhibition (%) was calculated with the equation (1 − v i/v 0) × 100, where v i is reaction velocity in the presence of the compound and v 0 is reaction velocity without the compound.

The target in test [2] is T1, cathepsin X. Put plainly: Determination of Ki values and inhibition mechanism against cathepsin X (Abz-FEK(Dnp)-OH substrate). The format is biochemical. The arrangement: made in house; host or cells: Pichia pastoris. The conditions noted are these: for Inhibition mechanism: ENZO. The protocol: as §1
Ki was determined by measuring the initial rate of hydrolysis at three different substrate concentrations (Supplementary Table S2) in the presence of seven different compound concentrations (0, 20, 40, 60, 80, 100 and 200 μM). 90 μL of the activated cathepsin was added to a black 96-well plate with 5 μL of the substrate and 5 μL of the compound. Formation of the fluorescent degradation product was monitored continuously at 460 nm ± 10 nm with excitation at 380 nm ± 20 nm (for AMC substrates) and, as noted above for Abz substrates, at 37 °C. All measurements were performed twice and in duplicate. The resulting data were analyzed by non-linear regression using the software SigmaPlot®, Enzyme Kinetics Module™ 1.3 and were fitted to the equation v = v max [S]/([S] (1 + [I]/αK i ) + K m (1 + [I]/K i )) (first group of compounds). For Ki determination against cathepsin X for the compounds from the second group, progress curves in the absence and presence of each putative inhibitor were fitted to the reaction mechanism presented in Fig. 3b. In this case the resulting data as well as reactivation curves were fitted to the equation system presented in Fig. 3c using ENZO application. For calculation of kinetic parameters from reaction progress curves the fluorescence coefficient for conversion of arbitrary fluorescence units to concentration was first determined. The fluorescence coefficient was calculated as the slope from the plot of initial substrate concentration vs. height of the plateau of the progress curve after complete hydrolysis of increasing concentrations of substrate, using linear regression.
Supplementary Table S2. Substrates used for the various cathepsins and their concentrations […]
Enzyme Substrate Concentration (µM) Reference/Company cathepsin X Abz-FEK(Dnp)-OH 3.25, 6.5, 13 Puzer et al.3 cathepsin B - endopept. Z-RR-AMC 60, 180, 360 Bachem cathepsin B - exopept. Abz-GIVRAK(Dnp)-OH 1, 3, 6 Bachem cathepsin S Z-VVR-AMC 0.5, 1, 1.5 Biomol cathepsin L Z-FR-AMC 0.5, 1, 4 Bachem cathepsin H Z-R-AMC 20, 80, 160 Biomol […]

Setting [3] is: second group, 50 μM compound, 1 h preincubation, read-out: % inhibition (1 h preincubation).
Where [4] appears, read: first group, SigmaPlot non-linear regression at 3 different substrate concentrations.
[5] abbreviates: screening at 50 μM compound, read-out: relative inhibition of cathepsin X.
[6] abbreviates: second group, progress curve analysis with ENZO.

From PMC5597618, “Identification and characterization of the novel reversible and selective cathepsin X inhibitors” (Scientific Reports, 2017) come the findings set out here.

Read-outs that look alike come from different tables or passages of the source.

As a reminder, the inhibition is the drop in the measured response relative to a control, in per cent. As a reminder, the Ki is a measure of affinity in units of concentration, obtained from inhibition or displacement. Read a low Ki as tighter binding.

T1 sequence (Q9UBR2 62-303): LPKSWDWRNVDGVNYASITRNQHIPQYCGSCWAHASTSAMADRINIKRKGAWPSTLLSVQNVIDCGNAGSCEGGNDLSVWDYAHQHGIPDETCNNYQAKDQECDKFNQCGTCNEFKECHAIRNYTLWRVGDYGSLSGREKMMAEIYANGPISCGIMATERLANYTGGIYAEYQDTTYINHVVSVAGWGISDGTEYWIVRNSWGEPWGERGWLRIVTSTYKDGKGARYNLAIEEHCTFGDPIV

`COc1ccccc1C(=O)CSc1n[nH]c(N)n1` [Compound 25, 2-((5-Amino-1H-1,2,4-triazol-3-yl)thio)-1-(2-methoxyphenyl)ethan-1-one]: the inhibition at 50 µM at cathepsin X [1] (setting [3]) is 50%.

For `COc1ccccc1-n1cnnc1SCC(=O)c1ccc2c(c1)OCCO2` [Compound 24, 1-(2,3-Dihydrobenzo[b][1,4]dioxin-6-yl)-2-((4-(2-methoxyphenyl)-4H-1,2,4-triazol-3-yl)thio)ethan-1-one], the inhibition at 50 µM at cathepsin X [1] (setting [3]) worked out at 73%. Consider `COc1ccc(C(=O)CSc2n[nH]c(N)n2)cc1F` [Compound 21, 2-((5-Amino-1H-1,2,4-triazol-3-yl)thio)-1-(3-fluoro-4-methoxyphenyl)ethan-1-one], for which the inhibition at 50 µM at cathepsin X [1] (setting [3]) turned out to be 39%. Take `Nc1cc(N)nc(SCC(=O)c2ccc3c(c2)OCCO3)n1` [Compound 19, 2-((4,6-Diaminopyrimidin-2-yl)thio)-1-(2,3-dihydrobenzo[b][1,4]dioxin-6-yl)ethan-1-one]: the inhibition at 50 µM at cathepsin X [1] (setting [3]) came to 27%. Same read-out and setting: with `N#Cc1ccc(C(=O)CSc2n[nH]c(N)n2)cc1` [Compound 16, 4-(2-((5-Amino-1H-1,2,4-triazol-3-yl)thio)acetyl)benzonitrile] the figure was 15%. Still for that read-out and setting: with `Nc1nc(SCC(=O)c2ccc3c(c2)OCO3)n[nH]1` [Compound 8, 2-((5-Amino-1H-1,2,4-triazol-3-yl)thio)-1-(benzo[d][1,3]dioxol-5-yl) ethanone] the figure was 67%. Turning to `O=C(NC1CC2C(=O)NCC(=O)N2C1)c1ccc2cccnc2n1` (stereo not drawn) [Compound 5], the Ki at cathepsin X [2] (setting [4]) is 136 µM. The inhibition at 50 µM on cathepsin X [1] (setting [5]) was 60 to 75%. Turning to `O=C(CSc1nnc(N2CCCC2)n1C1CC1)c1ccc2c(c1)OCCO2` [Compound 14, 2-((4-Cyclopropyl-5-(pyrrolidin-1-yl)-4H-1,2,4-triazol-3-yl)thio)-1-(2,3-dihydrobenzo[b][1,4]dioxin-6-yl)ethanone], at cathepsin X [2] (second group), the Inhibition mechanism result is “competitive”. For the same compound, on cathepsin X [2] (setting [6]), the inhibition constant (Ki) worked out at 5.41 ± 0.19 µM. Also, the inhibition at 50 µM was over 70% at cathepsin X [1] (setting [5]) and 74% at cathepsin X [1] (setting [3]).

As for `N#Cc1c(NC(=O)c2cc(OCCCN)ccc2Cl)sc2c1CCCC2` [Compound 4, 5-(3-Aminopropoxy)-2-chloro-N-(3-cyano-4,5,6,7-tetrahydrobenzo[b]thiophen-2-yl)benzamide], affinity on cathepsin X [2] (setting [4]) was put at a Ki of 230 ± 2.9 µM. Moreover, at cathepsin X [1] (setting [5]), the inhibition at 50 µM fell in the range of 60 to 75%. As to `Cc1[nH]c2ccccc2c1C(=O)CSc1nnc[nH]1` [Compound 6, 2-((4H-1,2,4-triazol-3-yl)thio)-1-(2-methyl-1H-indol-3-yl)ethanone], the inhibition at 50 µM on cathepsin X [1] (setting [3]) was found to be 44%. Consider `COc1ccc(C(=O)C(C)Sc2nncn2C)cc1OC` (stereo not drawn) [Compound 18, 1-(3,4-Dimethoxyphenyl)-2-((4-methyl-4H-1,2,4-triazol-3-yl)thio)propan-1-one], for which the inhibition at 50 µM on cathepsin X [1] (setting [3]) is 25%.

`O=C(CSc1nncn1-c1ccccc1)c1ccc2c(c1)OCCO2` [Compound 23, 1-(2,3-Dihydrobenzo[b][1,4]dioxin-6-yl)-2-((4-phenyl-4H-1,2,4-triazol-3-yl)thio)ethan-1-one]: the inhibition at 50 µM at cathepsin X [1] (setting [3]) stood at 72%.

As to `O=C(CSc1nc[nH]n1)c1ccc2c(c1)OCCO2` [Compound 11, 2-((1H-1,2,4-triazol-3-yl)thio)-1-(2,3-dihydrobenzo[b][1,4]dioxin-6-yl) ethanone], on cathepsin X [1] (setting [3]), the inhibition at 50 µM was 72%.

Consider `N#Cc1c(NC(=O)c2cc(OCCN)ccc2Cl)sc2c1CCCC2` [Compound 3, 5-(2-Aminoethoxy)-2-chloro-N-(3-cyano-4,5,6,7-tetrahydrobenzo[b]thiophen-2-yl)benzamide], for which, at cathepsin X [2] (setting [4]), the affinity corresponds to a Ki of 260 ± 31.9 µM. Besides, on cathepsin X [1] (setting [5]), the inhibition at 50 µM is 60 to 75%. As to `Nc1nc(SCC(=O)c2ccc(-c3ccccc3)cc2)n[nH]1` [Compound 10, 1-([1,1′-Biphenyl]-4-yl)-2-((5-amino-1H-1,2,4-triazol-3-yl)thio)ethanone], at cathepsin X [1] (setting [3]), the inhibition at 50 µM is 64%. Same read-out and setting: then `Nc1nc(SCC(=O)c2ccc(Oc3ccccc3)cc2)n[nH]1` [Compound 9, 2-((5-Amino-1H-1,2,4-triazol-3-yl)thio)-1-(4-phenoxyphenyl)ethanone], with 27%.

Take `O=C(CSc1nc(C2CC2)n[nH]1)c1ccc2c(c1)OCCO2` [Compound 17, 2-((3-Cyclopropyl-1H-1,2,4-triazol-5-yl)thio)-1-(2,3-dihydrobenzo[b][1,4]dioxin-6-yl)ethan-1-one]: the Inhibition mechanism result at cathepsin X [2] (second group) is listed as “competitive”. This compound also yielded a Ki on cathepsin X [2] (setting [6]) of 7.35 ± 0.28 µM. The inhibition at 50 µM on cathepsin X [1] (setting [5]) was over 70%; at cathepsin X [1] (setting [3]), 72%. Take `COc1cc2c(cc1OC)CN(C(=O)CSc1n[nH]c(N)n1)CC2` [Compound 7, 2-((5-Amino-1H-1,2,4-triazol-3-yl)thio)-1-(6,7-dimethoxy-3,4-dihydroisoquinolin-2(1 H)-yl)ethanone]: the “relative inhibition of cathepsin X” value on cathepsin X [1] (screening at 50 μM compound) is “devoid of any inhibitory activity”. Further, on cathepsin X [1] (setting [3]), the inhibition at 50 µM is 0%.

With `Cc1ccc(C(=O)CSc2n[nH]c(N)n2)cc1` [Compound 13, 2-((5-Amino-1H-1,2,4-triazol-3-yl)thio)-1-(p-tolyl)ethanone], the inhibition at 50 µM at cathepsin X [1] (setting [3]) came out at 22%. Same read-out and setting: then `Cc1[nH]c2ccccc2c1C(=O)C(C)Sc1n[nH]c(N)n1` (stereo not drawn) [Compound 15, 2-((5-Amino-1H-1,2,4-triazol-3-yl)thio)-1-(2-methyl-1H-indol-3-yl)propan-1-one], with 23%.
